Consider four compounds from patent publication EP0569096A1, “Depot preparation” (Akzo Nobel N.V., priority 1992, dated 1993).

SMILES strings stand for the structures. Where a name gives a salt, the structure may show the parent alone.

A short description of data set [1]: water solubility of the salts. Particulars: general statement in the disclosure of the invention.
The next data set can be described thus: physchem. Particulars: water.
A short description of data set [2]: solubility of the crystalline form compared with the amorphous solid. The class given is physicochemical. Particulars: crystals formed after storage for two weeks at 50° C. On the procedure: (§1) The pamoate salt of EXAMPLE I was stored for two weeks at 50° C, and crystals spontaneously formed. […] Furthermore they were easier to segregate for micronization, and easier to form a suspension with.

The nature of data set [3]: stability of the crystalline form compared with the amorphous solid. The class given is physicochemical. Conditions: crystals formed after storage for two weeks at 50° C. How it is done:
as §1

By solubility is commonly meant how much of the substance goes into solution per volume. A higher solubility goes with much dissolved substance.

For `CN1C[C@H]2c3ccccc3Oc3ccc(Cl)cc3[C@@H]2C1` (relative stereo) [pamoate salt], the “solubility (in words)” value in data set [1] is “very insoluble”.

Take `CN1CC2c3ccccc3Oc3ccc(Cl)cc3C2C1.CN1CC2c3ccccc3Oc3ccc(Cl)cc3C2C1.O=C(O)c1cc2ccccc2c(Cc2c(O)c(C(=O)O)cc3ccccc23)c1O` [hemipamoate]: in data set [1], the “solubility (in words)” value is listed as “very insoluble”.

In the case of `CN1C[C@H]2c3ccccc3Oc3ccc(Cl)cc3[C@@H]2C1` (relative stereo) [fumarate], the solubility in the data set “physchem” was 1000 µg/mL.

Take `CN1C[C@@H]2c3ccccc3Oc3ccc(Cl)cc3[C@H]2C1.O=C(O)c1cc2ccccc2c(Cc2c(O)c(C(=O)O)cc3ccccc23)c1O` [crystals]: the “solubility relative to the amorphous yellow solid” value in data set [2] is on record as “less soluble”. For the same compound, the “stability relative to the amorphous yellow solid” value in data set [3] was “more stable”.
